Results: patent US11034648B2, “Cystobactamide derivatives” (priority 2017, dated 2021)
≈ marks a conversion by molar mass, not a printed value. Where two headings read alike, the source gives them in different places.

Columns and labels:
Format in all cases: cell-based
E. coli ΔtolC = assay: microbe, parasite or virus in culture; conditions: Escherichia coli, 16 h, read-out: MIC E. coli ΔtolC, small panel, Tables 1a/1b; no visual growth after approx. 16 h
Description: (§1) Cystobactamid derivatives synthesized were tested against relevant Gram negative and positive bacteria of clinical interest. Experimental procedures used for the biological characterization of the compounds are the same as previously described in WO 2016/082934.
(§2) Bacterial strains used in susceptibility assays (minimum inhibitory concentration, MIC) were either part of our internal strain collection or purchased from the German Collection of Microorganisms and Cell Cultures (Deutsche Sammlung von Mikroorganismen und Zellkulturen, DSMZ) and the American Type Culture Collection (ATCC). The susceptible E. coli strain (WT) and fluoroquinolone-resistant mutants E. coli WT-3 and WT-III were kindly provided by Prof Dr. P. Heisig, Pharmaceutical Biology and Microbiology, University of Hamburg, Germany. The efflux-deficient strain P. aeruginosa ΔmexAB was kindly provided by Prof Dr. S. Häußler, Institute for Molecular Bacteriology, TWINCORE, Hannover, Germany. All compounds were prepared as DMSO stocks and MIC values were determined in standard microbroth dilution assays in 96-well MTPs as described in Baumann et al., Angew Chem Int Ed Engl. 2014; 53(52):14605-9. In brief, overnight cultures of bacteria were diluted in either tryptic soy broth (TSB: 1.7% peptone casein, 0.3% peptone soymeal, 0.25% glucose, 0.5% NaCl, 0.25% K2HPO4; pH 7.3; S. pneumoniae and E. faecalis) or cation-adjusted Müller-Hinton Broth (BBL™, BD; all other bacteria) and adjusted to 10^4-10^6 cfu/mL. Bacteria were grown in the presence of the derivatives in serial dilution for approx. 16 h at 30-37° C. MIC values were determined and were defined as the antibiotic concentration at which no visual growth of bacteria was observed.

P. aeruginosa ΔmexAB = assay: microbe, parasite or virus in culture; conditions: Pseudomonas aeruginosa, 16 h, read-out: MIC P. aeruginosa ΔmexAB, efflux-deficient strain; small panel, Tables 1a/1b
Description: as §1, §2

E. coli WT DSM-1116 = assay: MIC, microbroth dilution susceptibility assay; conditions: Escherichia coli, no visual growth after approx. 16 h
Description: as §1, §2

P. aeruginosa WT PA14 = assay: MIC, microbroth dilution susceptibility assay; conditions: Pseudomonas aeruginosa
Description: as §1, §2

S. aureus Newman = assay: MIC, microbroth dilution susceptibility assay; conditions: Staphylococcus aureus, NEWMAN, read-out: MIC S. aureus Newman
Description: as §1, §2

[1] = DSM1116, small panel, Tables 1a/1b, read-out: MIC E. coli WT DSM-1116
[2] = PA14, small panel, Tables 1a/1b, read-out: MIC P. aeruginosa WT PA14

## CC(C)Oc1c(NC(=O)c2ccc(NC(=O)[C@H](CC(N)=O)NC(=O)c3ccc(NC(=O)c4ccc(S(C)(=O)=O)cc4)cc3)cc2)ccc(C(=O)Nc2ccc(C(=O)O)cc2)c1O [Compound 56, (S)-4-(4-(4-(4-amino-2-(4-(4-(methylsulfonyl)benzamido)benzamido)-4-oxobutanamido)benzamido)-2-hydroxy-3-isopropoxybenzamido)benzoic acid]
E. coli ΔtolC
  MIC: < 0.03 µg/mL
P. aeruginosa ΔmexAB
  MIC: > 64 µg/mL
E. coli WT DSM-1116; [1]
  MIC: 2 µg/mL (≈ 2.31 µM)
P. aeruginosa WT PA14; [2]
  MIC: > 64 µg/mL
S. aureus Newman; small panel, Tables 1a/1b
  MIC: > 64 µg/mL

## C/C(=C/c1ccc(C#N)cc1)C(=O)Nc1ccc(C(=O)N[C@@H](CC(N)=O)C(=O)Nc2ccc(C(=O)Nc3ccc(C(=O)Nc4ccc(C(=O)O)cc4)c(O)c3OC(C)C)cc2)cc1 [Compound 122, (S,Z)-4-(4-(4-(4-amino-2-(4-(3-(4-cyanophenyl)-2-methylacrylamido)benzamido)-4-oxobutanamido)benzamido)-2-hydroxy-3-isopropoxybenzamido)benzoic acid]
E. coli ΔtolC
  MIC: 0.25 µg/mL (≈ 0.293 µM)
P. aeruginosa ΔmexAB
  MIC: > 64 µg/mL
E. coli WT DSM-1116; [1]
  MIC: 1 µg/mL (≈ 1.17 µM)
P. aeruginosa WT PA14; [2]
  MIC: > 64 µg/mL
S. aureus Newman; small panel, Tables 1a/1b
  MIC: 8 µg/mL (≈ 9.39 µM)

## CC(C)Oc1cc(C(=O)Nc2ccc(C(=O)O)cc2)ccc1NC(=O)c1ccc(NC(=O)[C@H](CC(N)=O)NC(=O)c2ccc(NC(=O)c3ccc([N+](=O)[O-])cc3)cc2)cc1 [Compound 69, (S)-4-(4-(4-(4-amino-2-(4-(4-nitrobenzamido)benzamido)-4-oxobutanamido)benzamido)-3-isopropoxybenzamido)benzoic acid]
E. coli ΔtolC
  MIC: 0.06 µg/mL (≈ 0.0735 µM)
P. aeruginosa ΔmexAB
  MIC: 1 µg/mL (≈ 1.23 µM)
E. coli WT DSM-1116; [1]
  MIC: > 64 µg/mL
P. aeruginosa WT PA14; [2]
  MIC: > 64 µg/mL
S. aureus Newman; small panel, Tables 1a/1b
  MIC: > 64 µg/mL

## CC(C)Oc1c(NC(=O)c2ccc(NC(=O)[C@H](CC(N)=O)NC(=O)c3ccc(NC(=O)c4ccc(F)cc4)cc3)cc2)ccc(C(=O)Nc2ccc(C(=O)O)cc2)c1O [Compound 39, (S)-4-(4-(4-(4-amino-2-(4-(4-fluorobenzamido)benzamido)-4-oxobutanamido)benzamido)-2-hydroxy-3-isopropoxybenzamido)benzoic acid]
E. coli ΔtolC
  MIC: 0.5 µg/mL (≈ 0.621 µM)
P. aeruginosa ΔmexAB
  MIC: 2 µg/mL (≈ 2.49 µM)
E. coli WT DSM-1116; [1]
  MIC: 0.5 µg/mL (≈ 0.621 µM)
P. aeruginosa WT PA14; [2]
  MIC: > 64 µg/mL
S. aureus Newman; small panel, Tables 1a/1b
  MIC: 2 µg/mL (≈ 2.49 µM)

## CC(C)COc1c(NC(=O)c2ccc(NC(=O)[C@H](CC(N)=O)NC(=O)c3ccc(NC(=O)c4ccc([N+](=O)[O-])cc4)cc3)cc2)ccc(C(=O)Nc2ccc(C(=O)O)cc2)c1O [Compound 65, (S)-4-(4-(4-(4-amino-2-(4-(4-nitrobenzamido)benzamido)-4-oxobutanamido)benzamido)-2-hydroxy-3-isobutoxybenzamido)benzoic acid]
E. coli ΔtolC
  MIC: > 64 µg/mL
P. aeruginosa ΔmexAB
  MIC: > 64 µg/mL
E. coli WT DSM-1116; [1]
  MIC: > 64 µg/mL
P. aeruginosa WT PA14; [2]
  MIC: > 64 µg/mL
S. aureus Newman; small panel, Tables 1a/1b
  MIC: 1 µg/mL (≈ 1.18 µM)

## CC(C)Oc1c(NC(=O)c2ccc(NC(=O)[C@H](CC(N)=O)NC(=O)c3ccc(C#Cc4ccc(C#N)cc4)cc3)cc2)ccc(C(=O)Nc2ccc(C(=O)O)cc2)c1O [Compound 128, (S)-4-(4-(4-(4-Amino-2-(4-((4-cyanophenyl)ethynyl)benzamido)-4-oxobutanamido)benzamido)-2-hydroxy-3-isopropoxybenzamido)benzoic acid]
E. coli ΔtolC
  MIC: 0.06 µg/mL (≈ 0.0757 µM)
P. aeruginosa ΔmexAB
  MIC: 0.5 µg/mL (≈ 0.631 µM)
E. coli WT DSM-1116; DSM1116, 16 h, read-out: MIC E. coli WT DSM-1116, small panel, Tables 1a/1b
  MIC: 0.06 µg/mL (≈ 0.0757 µM)
P. aeruginosa WT PA14; PA14, read-out: MIC P. aeruginosa WT PA14
  MIC: > 64 µg/mL
S. aureus Newman
  MIC: < 0.03 µg/mL

## CC(C)Oc1c(NC(=O)c2ccc(NC(=O)[C@H](CC(N)=O)NC(=O)c3ccc(NC(=O)c4ccc(C(F)(F)F)cc4)cc3)cc2)ccc(C(=O)Nc2ccc(C(=O)O)cc2)c1O [Compound 45, (S)-4-(4-(4-(4-amino-4-oxo-2-(4-(4-(trifluoromethyl)benzamido)benzamido)butanamido)benzamido)-2-hydroxy-3-isopropoxybenzamido)benzoic acid]
E. coli ΔtolC
  MIC: ≤ 0.03 µg/mL
P. aeruginosa ΔmexAB
  MIC: > 64 µg/mL
E. coli WT DSM-1116; [1]
  MIC: 0.5 µg/mL (≈ 0.585 µM)
P. aeruginosa WT PA14; [2]
  MIC: > 64 µg/mL
S. aureus Newman; small panel, Tables 1a/1b
  MIC: 16 to 32 µg/mL (≈ 18.7 to 37.4 µM)

## CC(C)Oc1c(NC(=O)c2ccc(NC(=O)[C@H](CC(N)=O)NC(=O)c3ccc(NC(=O)c4ccccc4[N+](=O)[O-])cc3)cc2)ccc(C(=O)Nc2ccc(C(=O)O)cc2)c1O [Compound 43, (S)-4-(4-(4-(4-amino-2-(4-(2-nitrobenzamido)benzamido)-4-oxobutanamido)benzamido)-2-hydroxy-3-isopropoxybenzamido)benzoic acid]
E. coli ΔtolC
  MIC: 2 µg/mL (≈ 2.4 µM)
P. aeruginosa ΔmexAB
  MIC: > 64 µg/mL
E. coli WT DSM-1116; [1]
  MIC: > 64 µg/mL
P. aeruginosa WT PA14; [2]
  MIC: > 64 µg/mL
S. aureus Newman; small panel, Tables 1a/1b
  MIC: > 64 µg/mL

## Cc1cc(C(=O)Nc2ccc(C(=O)N[C@@H](CC(N)=O)C(=O)Nc3ccc(C(=O)Nc4ccc(C(=O)Nc5ccc(C(=O)O)cc5)c(O)c4OC(C)C)cc3)cc2)ccc1C#N [Compound 52, (S)-4-(4-(4-(4-amino-2-(4-(4-cyano-3-methylbenzamido)benzamido)-4-oxobutanamido)benzamido)-2-hydroxy-3-isopropoxybenzamido)benzoic acid]
E. coli ΔtolC
  MIC: 0.03 µg/mL (≈ 0.0363 µM)
P. aeruginosa ΔmexAB
  MIC: 0.5 µg/mL (≈ 0.605 µM)
E. coli WT DSM-1116; [1]
  MIC: 0.5 µg/mL (≈ 0.605 µM)
P. aeruginosa WT PA14; [2]
  MIC: 4 µg/mL (≈ 4.84 µM)
S. aureus Newman; small panel, Tables 1a/1b
  MIC: 2 µg/mL (≈ 2.42 µM)

## CC(C)Oc1c(NC(=O)c2ccc(NC(=O)[C@H](CC(N)=O)NC(=O)c3ccc(NC(=O)c4ccc(C#N)cc4)cc3)cc2)ccc(C(=O)Nc2ccncc2)c1O [Compound 94, (S)-2-(4-(4-cyanobenzamido)benzamido)-N1-(4-((3-hydroxy-2-isopropoxy-4-(pyridin-4-ylcarbamoyl)phenyl)carbamoyl)phenyl)succinamide]
E. coli ΔtolC
  MIC: 0.03 µg/mL (≈ 0.039 µM)
P. aeruginosa ΔmexAB
  MIC: > 64 µg/mL
E. coli WT DSM-1116; [1]
  MIC: > 64 µg/mL
P. aeruginosa WT PA14; [2]
  MIC: > 64 µg/mL
S. aureus Newman; small panel, Tables 1a/1b
  MIC: > 64 µg/mL

## CC(C)Oc1c(NC(=O)c2ccc(NC(=O)[C@H](CC(N)=O)NC(=O)c3ccc(NC(=O)c4ccc(C#N)cc4)cc3)cc2)ccc(C(=O)Nc2cc(C(=O)O)n(C)c2)c1O [Compound 88, (S)-4-(4-(4-(4-amino-2-(4-(4-cyanobenzamido)benzamido)-4-oxobutanamido)benzamido)-2-hydroxy-3-isopropoxybenzamido)-1-methyl-1H-pyrrole-2-carboxylic acid]
E. coli ΔtolC
  MIC: < 0.03 µg/mL
P. aeruginosa ΔmexAB
  MIC: 8 µg/mL (≈ 9.82 µM)
E. coli WT DSM-1116; [1]
  MIC: 0.5 µg/mL (≈ 0.614 µM)
P. aeruginosa WT PA14; [2]
  MIC: > 64 µg/mL
S. aureus Newman; small panel, Tables 1a/1b
  MIC: 64 µg/mL (≈ 78.5 µM)

## CC(C)Oc1c(NC(=O)c2ccc(NC(=O)[C@H](CC(N)=O)NC(=O)c3ccc(NC(=O)c4ccc(C#N)cc4)cc3)cc2)ccc(C(=O)Nc2cccc(C(=O)O)c2)c1O [Compound 90, (S)-3-(4-(4-(4-amino-2-(4-(4-cyanobenzamido)benzamido)-4-oxobutanamido)benzamido)-2-hydroxy-3-isopropoxybenzamido)benzoic acid]
E. coli ΔtolC
  MIC: 0.03 µg/mL (≈ 0.037 µM)
P. aeruginosa ΔmexAB
  MIC: > 64 µg/mL
E. coli WT DSM-1116; [1]
  MIC: 0.5 µg/mL (≈ 0.616 µM)
P. aeruginosa WT PA14; [2]
  MIC: > 64 µg/mL
S. aureus Newman; small panel, Tables 1a/1b
  MIC: 2 µg/mL (≈ 2.46 µM)

## CC(=O)Nc1ccc(C(=O)Nc2ccc(C(=O)N[C@@H](CC(N)=O)C(=O)Nc3ccc(C(=O)Nc4ccc(C(=O)Nc5ccc(C(=O)O)cc5)c(O)c4OC(C)C)cc3)cc2)cc1 [Compound 36, (S)-4-(4-(4-(2-(4-(4-acetamidobenzamido)benzamido)-4-amino-4-oxobutanamido)benzamido)-2-hydroxy-3-isopropoxybenzamido)benzoic acid]
E. coli ΔtolC
  MIC: 0.06 µg/mL (≈ 0.0711 µM)
P. aeruginosa ΔmexAB
  MIC: > 64 µg/mL
E. coli WT DSM-1116; [1]
  MIC: 16 µg/mL (≈ 19 µM)
P. aeruginosa WT PA14; [2]
  MIC: > 64 µg/mL
S. aureus Newman; small panel, Tables 1a/1b
  MIC: 64 µg/mL (≈ 75.8 µM)

## CC(C)Oc1c(NC(=O)c2ccc(NC(=O)[C@H](CC(N)=O)NC(=O)c3ccc(NC(=O)c4ccc(C#N)cc4)cc3)cc2)ccc(C(=O)NC2CCNCC2)c1O [Compound 91, (S)-2-(4-(4-cyanobenzamido)benzamido)-N1-(4-((3-hydroxy-2-isopropoxy-4-(piperidin-4-ylcarbamoyl)phenyl)carbamoyl)phenyl)succinamide]
E. coli ΔtolC
  MIC: > 64 µg/mL
P. aeruginosa ΔmexAB
  MIC: > 64 µg/mL
E. coli WT DSM-1116; [1]
  MIC: > 64 µg/mL
P. aeruginosa WT PA14; [2]
  MIC: > 64 µg/mL
S. aureus Newman; small panel, Tables 1a/1b
  MIC: > 64 µg/mL

## CC(C)Oc1c(NC(=O)c2ccc(NC(=O)[C@H](CC(N)=O)NC(=O)c3ccc(NC(=O)c4ccncc4)cc3)cc2)ccc(C(=O)Nc2ccc(C(=O)O)cc2)c1O [Compound 55, (S)-4-(4-(4-(4-amino-2-(4-(isonicotinamido)benzamido)-4-oxobutanamido)benzamido)-2-hydroxy-3-isopropoxybenzamido)benzoic acid]
E. coli ΔtolC
  MIC: < 0.03 µg/mL
P. aeruginosa ΔmexAB
  MIC: 2 µg/mL (≈ 2.54 µM)
E. coli WT DSM-1116; [1]
  MIC: 1 µg/mL (≈ 1.27 µM)
P. aeruginosa WT PA14; [2]
  MIC: > 64 µg/mL
S. aureus Newman; small panel, Tables 1a/1b
  MIC: > 64 µg/mL

## CC(C)Oc1c(NC(=O)c2ccc(NC(=O)[C@H](CC(N)=O)NC(=O)c3ccc(NC(=O)c4cccc([N+](=O)[O-])c4)cc3)cc2)ccc(C(=O)Nc2ccc(C(=O)O)cc2)c1O [Compound 41, (S)-4-(4-(4-(4-amino-2-(4-(3-nitrobenzamido)benzamido)-4-oxobutanamido)benzamido)-2-hydroxy-3-isopropoxybenzamido)benzoic acid]
E. coli ΔtolC
  MIC: 0.25 µg/mL (≈ 0.301 µM)
P. aeruginosa ΔmexAB
  MIC: 0.5 µg/mL (≈ 0.601 µM)
E. coli WT DSM-1116; [1]
  MIC: > 64 µg/mL
P. aeruginosa WT PA14; [2]
  MIC: > 64 µg/mL
S. aureus Newman; small panel, Tables 1a/1b
  MIC: > 64 µg/mL
